The values below come from patent US5534654A, “Aromatic-sulfonamide-type hydroxamic acid derivative” (Shionogi & Co., Ltd., priority 1991, dated 1996).

Common to all, as to assay type: cell-based
The subject of experiment [1] is NIH3T3 cells transformed by ras gene. Briefly: Detransformation of Cells Transformed by Ras Gene. The note with it: Mus musculus, 24 hours, 2-fold serial dilutions, morphological observation, read-out: MTC: Minimum Concentration Required for the Detransformation of Cells Transformed by Ras Gene. As for the experimental part:
Medium used: 9.5 g of Dulbecco's Eagle MEM medium (Nissui Seiyaku) solution, 20 ml of 7% sodium hydrogen carbonate solution are added to distilled water and a fetal bovine serum (Flow Laboratories, Inc.) was added to a final concentration of 10 v/v % to obtain the medium. The medium (100 μl) was added to a 96-well plate (Sumitomo Bakelite) and NIH3T3 cells transformed by ras gene (5×10^3 cells/well) were seeded. The plate was incubated for 24 hr in a 5% carbon dioxide gas incubator. Then a sample to be tested was added in such a manner as to give 2-fold serial dilutions. After 24 hours, cells were observed morphologically to evaluate the detransformation activity.
Minimum Concentration Required for the Detransformation of Cells Transformed by Ras Gene

Experiment [2] relates to Cell Adhesion of Leukocytes onto Vascular Endothelial Cells of Human Umbilical Vein. Briefly: Assay of Inhibition Activity Against Cell Adhesion of Leukocytes (HL60 cells) onto Vascular Endothelial Cells of Human Umbilical Vein. The note with it: 16-hour incubation with sample, then TNF 4 hr, HL-60 cells 30 min, Rose Bengal OD570. As for the experimental part: Assay of Inhibition Activity Against Cell Adhesion of Leukocytes onto Vascular Endothelial Cells of Human Umbilical Vein
Human vascular endothelial cells used had been obtained from human umbilical vein by perfusion method using an enzyme solution of collagenase and have been maintained by subculturing in a culture solution, i.e., M199 medium (Gibco, Inc.) supplemented with 20% fetal bovine serum (FBS; Gibco, Inc.), 100 μg/ml endothelial mitogen (Funakoshi), 90 μg/ml heparin, 50 IU/ml Penicillin and 50 μg/ml Streptomycin. HL60 cells (human myelocytic leukemia cells) were purchased from Flow, Inc. and have been maintained by subculturing in RPMI1640 medium containing 10% FBS.
Four hours later, to each well was added 4 μl of a medium containing a sample at various concentrations. […] After 16-hour-incubation, 4 μl of 1×10^4 μ/ml TNF solution (tumor necrosis factor dissolved in a medium solution) was added and the incubation was continued for 4 hr. The resultant medium solution containing the sample was then filtered with suction and washed (×3) with DMEM solution containing 10% FBS, which was followed by the addition of 200 μl suspension of 3×10^5 HL-60 cells suspended in DMEM containing 10% FBS. The incubation was carried out at 37° C. for 30 min. […] After being allowed to stand for 5 min at room temperature, the supernatant was removed by aspiration, which was followed by washing (×2) with DMEM solution containing 10% FBS. A mixture of ethanol/phosphate-buffered physiological saline (1:1) was added and the resultant mixture was allowed to stand for 30 min to solubilize Rose Bengal pigment, which was followed by the determination of OD570 value on spectrophotometer.

The test system of experiment [3] is Vascular Endothelial Cells of Human Umbilical Vein. The experiment in a line: Assay of Inhibition Against the Cell Growth of Vascular Endothelial Cells of Human Umbilical Vein (MTT method). The following applies: 72 h, 3-day incubation, OD570. As for the experimental part: Assay of Inhibition Against the Cell Growth of Vascular Endothelial Cells of Human Umbilical Vein
Human vascular endothelial cells used had been obtained from human umbilical vein by perfusion method using an enzyme solution of collagenase and have been maintained by subculturing in a culture solution, i.e., M199 medium (Gibco, Inc.) supplemented with 20% fetal bovine serum (FBS; Gibco, Inc.), 100 μg/ml endothelial mitogen (Funakoshi), 90 μg/ml heparin, 50 IU/ml Penicillin and 50 μg/ml Streptomycin. […] On the next day, to each well was added 10 μl of a medium containing a sample at various concentrations. […] After 3-day-incubation, to the mixture was added 50 μl of 3 mg/ml MTT solution (a solution of 3-(4,5-dimethyl-2-thiazolyl)-2,5-diphenyl-2H-tetrazolium bromide dissolved in a culture solution) and the incubation was continued for 4 hr. Cells and MTT pigment were solubilized by the addition of 50 μl of 20% SDS solution (sodium dodecylsulfate dissolved in 0.02N HCl) and the incubation continued for 1 hr, which was followed by the determination of OD570 value on spectrophotometer.
(In general: Formazan colour is commonly taken as a measure of viable cells.)

Molecules are shown by their SMILES. pIC50: −log10 of the molar value.

The term pIC50 denotes −log10 of the IC50, conventionally taken in molar units. A high value points to a low IC50.

With `O=C(/C=C/C=C/c1ccccc1NS(=O)(=O)c1ccccc1)NO` [Compound I-4, (2E)(4E)-5-(2-Phenylsulfonylaminophenyl)pentadienohydroxamic Acid], in experiment [1], the minimal effective concentration was found to be 1.6 µM.

Regarding `CN(c1ccccc1/C=C/C=C/C(=O)NO)S(=O)(=O)c1ccccc1` [Compound I-7, (2E)(4E) -5-[2-(N-Methylphenylsulfonylamino)phenyl]-2,4-pentadienohydroxamic Acid], the negative logarithm of the IC50 (pIC50) in experiment [2] was 5.35. In addition, in experiment [1], the minimal effective concentration was 0.2 µM.

Take `O=C(/C=C/C=C/C=C/c1ccccc1NS(=O)(=O)c1ccccc1)NO` [Compound I-9, (2E)(4E)(6E)-7-(2-Phenylsulfonylaminophenyl)-heptatrienohydroxamic Acid]: the figures for the negative logarithm of the IC50 (pIC50) in experiment [3] and in experiment [2] were 4.59 and 5.19, respectively. Further, the minimal effective concentration in experiment [1] was found to be 3.2 µM.

In the case of `O=C(/C=C/C=C/c1cccc(NS(=O)(=O)c2ccccc2)c1)NO` [Compound I-10, (2E)(4E)-5-(3-Phenylsulfonylaminophenyl)pentadienohydroxamic Acid], the negative logarithm of the IC50 (pIC50) in experiment [3] was 4.69; in experiment [2] it was 5.28. Moreover, in experiment [1], the minimal effective concentration turned out to be 0.3 µM.

`CN(c1cccc(/C=C/C=C/C(=O)NO)c1)S(=O)(=O)c1ccccc1` [Compound I-11] showed a pIC50 in experiment [2] of 5.19. In experiment [1], the minimal effective concentration came to 0.6 µM.

For the compound `O=C(/C=C/C=C/c1ccc(NS(=O)(=O)c2ccccc2)cc1)NO` [Compound I-12, (2E)(4E)-5-(4-Phenylsulfonylaminophenyl)pentadienohydroxamic Acid], the minimal effective concentration in experiment [1] is 3.1 µM.

For `O=C(/C=C/C=C/c1cc2ccccc2n1S(=O)(=O)c1ccccc1)NO` [Compound I-17, (2E)(4E)-5-(1-phenylsulfonylindol-2-yl)pentadienohydroxamic Acid], the negative logarithm of the IC50 (pIC50) in experiment [2] was 5.08. Besides, the minimal effective concentration in experiment [1] was determined as 3.2 µM.

Consider `O=C(/C=C/C#Cc1cccc(NS(=O)(=O)c2ccccc2)c1)NO` [Compound I-18, (2E)-5-[3-(Phenylsulfonylamino)phenyl]pent-2-en-4-ynohydroxamic Acid], for which the pIC50 in experiment [3] was 4.86; in experiment [2] it was 5.60. In experiment [1], the minimal effective concentration was 0.039 µM.

Regarding `CN(c1cccc(C#C/C=C/C(=O)NO)c1)S(=O)(=O)c1ccccc1` [Compound I-19, (2E)-5-[3-(N-Methylphenylsulfonylamino)phenyl]pent-2-en-4-ynohydroxamic Acid], the negative-log IC50 (pIC50) in experiment [3] is 4.57; in experiment [2] it was 5.20. In experiment [1], the minimal effective concentration was 0.3 µM.

In the case of `O=C(/C=C/C=C/c1cc2ccccc2cc1NS(=O)(=O)c1ccccc1)NO` [Compound I-20, (2E)(4E)-5-(3'-Phenylsulfonylamino-2'-naphthyl)pentadienohydroxamic Acid], the minimal effective concentration in experiment [1] worked out at 0.6 µM.
